Laboratory results as given in patent publication US20140294956A1, “GASTRIC RETENTIVE EXTENDED RELEASE PHARMACEUTICAL COMPOSITIONS” (MALLINCKRODT LLC, priority 2011, published 2014).

Test: Ethanol release testing at 100 rpm paddle speed (Example 32)
Assay type: physicochemical

SMILES: CC(=O)Nc1ccc(O)cc1 [APAP]
- Percent Release, Mean (0% Ethanol, 15 min): 52.2%
- Percent Release, Mean (0% Ethanol, 30 min): 54.6%
- Percent Release, Mean (0% Ethanol, 45 min): 56.8%
- Percent Release, Mean (0% Ethanol, 60 min): 58.8%
- Percent Release, Mean (0% Ethanol, 75 min): 60.8%
- Percent Release, Mean (0% Ethanol, 90 min): 62.6%
- Percent Release, Mean (0% Ethanol, 120 min): 66.0%
- Percent Release, Mean (0% Ethanol, 240 min): 78.6%
- Percent Release, Mean (0% Ethanol, 480 min): 95.5%
- Percent Release, Mean (5% Ethanol, 15 min): 52.6%
- Percent Release, Mean (5% Ethanol, 30 min): 55.1%
- Percent Release, Mean (5% Ethanol, 45 min): 57.1%
- Percent Release, Mean (5% Ethanol, 60 min): 58.9%
- Percent Release, Mean (5% Ethanol, 75 min): 60.7%
- Percent Release, Mean (5% Ethanol, 90 min): 62.3%
- Percent Release, Mean (5% Ethanol, 120 min): 65.5%
- Percent Release, Mean (5% Ethanol, 240 min): 77.2%
- Percent Release, Mean (5% Ethanol, 480 min): 94.4%
- Percent Release, Mean (10% Ethanol, 15 min): 51.7%
- Percent Release, Mean (10% Ethanol, 30 min): 54.1%
- Percent Release, Mean (10% Ethanol, 45 min): 56.0%
- Percent Release, Mean (10% Ethanol, 60 min): 57.8%
- Percent Release, Mean (10% Ethanol, 75 min): 59.5%
- Percent Release, Mean (10% Ethanol, 90 min): 61.1%
- Percent Release, Mean (10% Ethanol, 120 min): 64.1%
- Percent Release, Mean (10% Ethanol, 240 min): 75.5%
- Percent Release, Mean (10% Ethanol, 480 min): 93.5%
- Percent Release, Mean (20% Ethanol, 15 min): 50.2%
- Percent Release, Mean (20% Ethanol, 30 min): 53.4%
- Percent Release, Mean (20% Ethanol, 45 min): 55.5%
- Percent Release, Mean (20% Ethanol, 60 min): 57.3%
- Percent Release, Mean (20% Ethanol, 75 min): 59.0%
- Percent Release, Mean (20% Ethanol, 90 min): 60.5%
- Percent Release, Mean (20% Ethanol, 120 min): 63.3%
- Percent Release, Mean (20% Ethanol, 240 min): 76.0%
- Percent Release, Mean (20% Ethanol, 480 min): 91.9%
- Percent Release, Mean (40% Ethanol, 15 min): 16.7%
- Percent Release, Mean (40% Ethanol, 30 min): 30.4%
- Percent Release, Mean (40% Ethanol, 45 min): 38.5%
- Percent Release, Mean (40% Ethanol, 60 min): 43.1%
- Percent Release, Mean (40% Ethanol, 75 min): 46.1%
- Percent Release, Mean (40% Ethanol, 90 min): 48.3%
- Percent Release, Mean (40% Ethanol, 120 min): 51.1%
- Percent Release, Mean (40% Ethanol, 240 min): 60.8%
- Percent Release, Mean (40% Ethanol, 480 min): 77.2%
